In US20230053864A1, “Methods for Identifying Modulators of G Protein-Coupled Receptors” (University of Miami, priority 2019, published 2023):
Where “and” joins values, the source holds several entries; their conditions need not be identical. Equal values may be shown once. Entries after “also recorded” stand apart in the source; their conditions may differ.

Assays:
HCAR3 = HCAR3 (Homo sapiens, UniProt P49019); assay: dCyFIRscreen profiling and titrations in yeast GPCR-Gα reporter strains; assay type: cell-based; set-up: expressed in transfected cells; conditions: for EC50: titration, yeast GPCR-Gα reporter strain, this study
Protocol: (§1) Individual Gα reporter strains were grown in SCD LoFo pH=7.0 at 30° C. to an OD=1.0 in a 2.0 mL 96-well DeepWell block (Greiner; 780271-FD). Cells were normalized to an OD of 0.1 in SCD LoFo pH=7.0 using a Biomek NXp liquid-handling robot. 10× ligand/vehicle stocks were prepared (see Table 2) and 4 μL were distributed to each well of a 384-well plate (Greiner; 781096) in quadruplicate using a Biomek NXp. 36 μL normalized cells were distributed to each well containing the appropriate 10× ligand/vehicle. Plates were sealed with a breathable cover (Diversified Biotech; BERM-2000) and incubated at 30° C. Fluorescence readings were collected after 18 hours using a plate reader (ClarioStar, BMG LabTech, Offenburg, Germany) (bottom read, 10 flashes/well, excitation filter: 430-10 nm, dichroic filter: LP 458 nm, emission filter: 482-16 nm, gain=1300 (1500 for FIG. 1B.)). Absorbance readings were also collected after 18 hours using the same instrument (22 flashes/well, excitation filter: 600 nm).
(§2) All titration curves were analyzed using Prism software and the pharmacological fitting function log(agonist) vs. response—Variable slope (four parameters) (GraphPad Software, San Diego, USA).

GPR4 = target: T1, GPR4 (Homo sapiens, UniProt P46093); assay: dCyFIRscreen profiling in yeast GPCR-Gα reporter strains; assay type: cell-based
T1 construct: expressed in transfected cells; host or cells: Saccharomyces cerevisiae BY4741-derived GPCR-Gα reporter strains, X-2 landing pad
Protocol: as §1

HCAR2 = target: T2, HCAR2 (Homo sapiens, UniProt Q8TDS4); assay: as above; assay type: cell-based
T2 construct: expressed in transfected cells; host or cells: Saccharomyces cerevisiae BY4741-derived GPCR-Gα reporter strains, X-2 landing pad
Protocol: as §1

LPAR1 = target: T3, LPAR1 (Homo sapiens, UniProt Q92633); assay: dCyFIRscreen profiling and titrations in yeast GPCR-Gα reporter strains; assay type: cell-based
T3 construct: expressed in transfected cells; host or cells: Saccharomyces cerevisiae BY4741-derived GPCR-Gα reporter strains, X-2 landing pad
Protocol: as §1, §2

ADORA2A = target: T4, ADORA2A (Homo sapiens, UniProt P29274); assay: as above; assay type: cell-based
T4 construct: expressed in transfected cells; host or cells: Saccharomyces cerevisiae BY4741-derived GPCR-Gα reporter strains, X-2 landing pad
Protocol: as §1, §2

LPAR4 = target: T5, LPAR4 (Homo sapiens, UniProt Q99677); assay: dCyFIRscreen profiling in yeast GPCR-Gα reporter strains; assay type: cell-based
T5 construct: expressed in transfected cells; host or cells: Saccharomyces cerevisiae BY4741-derived GPCR-Gα reporter strains, X-2 landing pad
Protocol: as §1

GPR68 = target: T6, GPR68 (Homo sapiens, UniProt Q15743); assay: dCyFIRscreen profiling and titrations in yeast GPCR-Gα reporter strains; assay type: cell-based
T6 construct: expressed in transfected cells; host or cells: Saccharomyces cerevisiae BY4741-derived GPCR-Gα reporter strains, X-2 landing pad
Protocol: as §1, §2

GPR35 = target: T7, GPR35 (Homo sapiens, UniProt Q9HC97); assay: as above; assay type: cell-based
T7 construct: expressed in transfected cells; host or cells: Saccharomyces cerevisiae BY4741-derived GPCR-Gα reporter strains, X-2 landing pad
Protocol: as §1, §2

ADRA2B = target: T8, ADRA2B (Homo sapiens, UniProt P18089); assay: as above; assay type: cell-based
T8 construct: expressed in transfected cells; host or cells: Saccharomyces cerevisiae BY4741-derived GPCR-Gα reporter strains, X-2 landing pad
T8 sequence (P18089 1-450): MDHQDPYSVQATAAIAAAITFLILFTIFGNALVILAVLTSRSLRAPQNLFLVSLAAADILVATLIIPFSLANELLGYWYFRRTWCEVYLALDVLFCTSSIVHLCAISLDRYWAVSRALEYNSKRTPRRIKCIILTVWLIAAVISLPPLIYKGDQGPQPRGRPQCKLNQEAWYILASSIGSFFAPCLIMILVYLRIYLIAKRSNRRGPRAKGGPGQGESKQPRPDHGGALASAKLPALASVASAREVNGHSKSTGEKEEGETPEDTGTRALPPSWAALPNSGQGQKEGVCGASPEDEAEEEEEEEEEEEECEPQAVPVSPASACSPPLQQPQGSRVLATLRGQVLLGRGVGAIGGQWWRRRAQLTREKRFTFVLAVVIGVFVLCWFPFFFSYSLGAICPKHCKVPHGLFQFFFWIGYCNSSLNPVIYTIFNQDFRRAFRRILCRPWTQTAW
Protocol: dCyFIRscreen protocol. […] Cells were normalized to an OD of 0.1 in SCD LoFo pH=7.0 using a Biomek NXp liquid-handling robot. […] 36 μL normalized cells were distributed to each well containing the appropriate 10× ligand/vehicle. Plates were sealed with a breathable cover (Diversified Biotech; BERM-2000) and incubated at 30° C. […] Absorbance readings were also collected after 18 hours using the same instrument (22 flashes/well, excitation filter: 600 nm).
Titration Analyses. All titration curves were analyzed using Prism software and the pharmacological fitting function log(agonist) vs. response—Variable slope (four parameters) (GraphPad Software, San Diego, USA).

CNR2 = target: T9, CNR2 (Homo sapiens, UniProt P34972); assay: dCyFIRscreen profiling in yeast GPCR-Gα reporter strains; assay type: cell-based
T9 construct: expressed in transfected cells; host or cells: Saccharomyces cerevisiae BY4741-derived GPCR-Gα reporter strains, X-2 landing pad
Protocol: as §1

GPR65 = target: T10, GPR65 (Homo sapiens, UniProt Q8IYL9); assay: dCyFIRscreen profiling and titrations in yeast GPCR-Gα reporter strains; assay type: cell-based
T10 construct: expressed in transfected cells; host or cells: Saccharomyces cerevisiae BY4741-derived GPCR-Gα reporter strains, X-2 landing pad
Protocol: as §1, §2

[1] = test system: 20 GPCRs (200 GPCR-Gα strains); assay: control dCyFIRscreen profiles against 20 GPCRs (200 GPCR-Gα strains); assay type: cell-based, human; conditions: 20 GPCRs incl. all 15 constitutively active receptors
Protocol: dCyFIRscreen protocol. Individual Gα reporter strains were grown in SCD LoFo pH=7.0 at 30° C. to an OD=1.0 in a 2.0 mL 96-well DeepWell block (Greiner; 780271-FD). Cells were normalized to an OD of 0.1 in SCD LoFo pH=7.0 using a Biomek NXp liquid-handling robot. 10× ligand/vehicle stocks were prepared (see Table 2) and 4 μL were distributed to each well of a 384-well plate (Greiner; 781096) in quadruplicate using a Biomek NXp. 36 μL normalized cells were distributed to each well containing the appropriate 10× ligand/vehicle. Plates were sealed with a breathable cover (Diversified Biotech; BERM-2000) and incubated at 30° C. Fluorescence readings were collected after 18 hours using a plate reader (ClarioStar, BMG LabTech, Offenburg, Germany) (bottom read, 10 flashes/well, excitation filter: 430-10 nm, dichroic filter: LP 458 nm, emission filter: 482-16 nm, gain=1300 (1500 for FIG. 1B.)). Absorbance readings were also collected after 18 hours using the same instrument (22 flashes/well, excitation filter: 600 nm).

S1PR2 = target: T11, S1PR2 (Homo sapiens, UniProt O95136); assay: dCyFIRscreen profiling and titrations in yeast GPCR-Gα reporter strains; assay type: cell-based
T11 construct: expressed in transfected cells; host or cells: Saccharomyces cerevisiae BY4741-derived GPCR-Gα reporter strains, X-2 landing pad
Protocol: as §1, §2

S1PR1 = target: T12, S1PR1 (Homo sapiens, UniProt P21453); assay: as above; assay type: cell-based
T12 construct: expressed in transfected cells; host or cells: Saccharomyces cerevisiae BY4741-derived GPCR-Gα reporter strains, X-2 landing pad
Protocol: as §1, §2

[2] = test system: 300-plex of GPCR-Gα reporter strains; assay: dCyFIRplex FACS sorting of agonist-treated 300-plex; assay type: cell-based, Saccharomyces cerevisiae; conditions: following agonist treatment
Protocol: dCyFIRplex protocol. […] 10× ligand/vehicle stocks were added to individual wells of a DeepWell block. The consolidated 300-plex or control strains were then added to each well and grown in the presence of ligand/vehicle overnight, so that each culture would reach an OD=4.0 before dCyFIRplex profiling. Samples were washed with sterile ddH2O and normalized to an OD=2.0 in SCD LoFo pH=7.0. Tracer cells were added to each sample at a 1:301 ratio. The final mixture was then transferred into a glass sample tube (USA Scientific; 1450-2810) and used for cell sorting. A BD FACSAria-II cell sorter was used for all dCyFIRplex experiments to assess mTq2 (405 nm excitation, 450/50 nm emission) and mRuby3 fluorescence (535 nm excitation, 610/20 nm emission). A gating strategy was set using the three control samples (DI P1 mTq2, individual Gα reporter strains lacking an integrated receptor, and DI P1 mRuby3) such that tracer cells and any cell expressing mTq2 was sorted into a 14 mL collection tube (USA Scientific; 1485-2810) containing 500 μL YPD. Samples treated with water or 500 μM adenosine (well-characterized using dCyFIRscreen, inexpensive, and water-soluble) were used to build a standard curve measuring total events in the mRuby3 and mTq2 positive gates. The standard curve from a water-treated 300-plex was used to determine the number of tracer events that would correspond to 15,000 events in the mTq2 gate for a water-treated 300-plex. Each sample was sorted until the standardized tracer count was reached. Sorted cells were enriched by outgrowth in 5 mL YPD at 30° C. with shaking (200 rpm) for 18 hours. Cells were harvested by centrifugation at 3,000×g for 5 min, and resuspended in 1 mL ddH2O. Cells were either processed immediately for qPCR deconvolution or frozen in 100 μL aliquots for storage at −20° C. The set of samples comparatively deconvoluted by qPCR and NanoString methods were derived from aliquots of the same dCyFIRplex experiments. […]

T10 sequence (Q8IYL9 whole entry): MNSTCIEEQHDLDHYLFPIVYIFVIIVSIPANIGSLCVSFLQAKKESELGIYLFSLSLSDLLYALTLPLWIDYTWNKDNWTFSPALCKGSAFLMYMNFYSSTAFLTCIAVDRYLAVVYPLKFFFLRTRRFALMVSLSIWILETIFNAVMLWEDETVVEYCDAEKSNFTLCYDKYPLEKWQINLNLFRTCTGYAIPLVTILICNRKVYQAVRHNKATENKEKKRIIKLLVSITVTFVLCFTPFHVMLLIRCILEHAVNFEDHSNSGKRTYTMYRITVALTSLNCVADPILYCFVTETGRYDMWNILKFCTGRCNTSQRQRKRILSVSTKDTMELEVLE
T7 sequence (Q9HC97 whole entry): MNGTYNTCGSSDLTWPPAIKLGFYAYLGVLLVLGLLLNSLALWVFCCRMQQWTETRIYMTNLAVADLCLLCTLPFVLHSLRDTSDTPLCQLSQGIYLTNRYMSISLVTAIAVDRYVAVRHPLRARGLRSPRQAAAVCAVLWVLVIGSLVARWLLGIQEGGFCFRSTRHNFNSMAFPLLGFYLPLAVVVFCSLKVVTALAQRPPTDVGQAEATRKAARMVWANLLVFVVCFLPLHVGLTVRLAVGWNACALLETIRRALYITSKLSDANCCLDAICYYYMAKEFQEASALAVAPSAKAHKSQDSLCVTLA
T6 sequence (Q15743 whole entry): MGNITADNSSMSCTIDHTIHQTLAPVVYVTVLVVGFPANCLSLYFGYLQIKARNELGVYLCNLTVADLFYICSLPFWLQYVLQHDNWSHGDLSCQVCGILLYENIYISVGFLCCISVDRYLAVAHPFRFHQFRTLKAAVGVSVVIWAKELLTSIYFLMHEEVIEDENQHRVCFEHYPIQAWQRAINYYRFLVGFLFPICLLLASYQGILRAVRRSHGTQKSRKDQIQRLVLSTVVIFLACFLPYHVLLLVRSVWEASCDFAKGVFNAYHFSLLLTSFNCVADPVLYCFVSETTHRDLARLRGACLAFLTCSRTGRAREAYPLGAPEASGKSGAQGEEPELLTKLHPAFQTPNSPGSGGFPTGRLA
T3 sequence (Q92633 whole entry): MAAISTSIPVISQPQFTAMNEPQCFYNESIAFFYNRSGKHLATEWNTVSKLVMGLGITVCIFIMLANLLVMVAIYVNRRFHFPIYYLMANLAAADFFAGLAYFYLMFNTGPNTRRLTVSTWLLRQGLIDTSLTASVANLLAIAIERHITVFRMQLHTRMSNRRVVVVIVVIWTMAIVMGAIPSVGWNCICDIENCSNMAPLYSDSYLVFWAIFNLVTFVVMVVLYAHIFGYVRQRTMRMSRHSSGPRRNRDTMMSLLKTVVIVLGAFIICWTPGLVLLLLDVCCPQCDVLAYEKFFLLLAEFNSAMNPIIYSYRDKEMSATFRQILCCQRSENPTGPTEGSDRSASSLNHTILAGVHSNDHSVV
Sequence of HCAR3 (P49019 whole entry): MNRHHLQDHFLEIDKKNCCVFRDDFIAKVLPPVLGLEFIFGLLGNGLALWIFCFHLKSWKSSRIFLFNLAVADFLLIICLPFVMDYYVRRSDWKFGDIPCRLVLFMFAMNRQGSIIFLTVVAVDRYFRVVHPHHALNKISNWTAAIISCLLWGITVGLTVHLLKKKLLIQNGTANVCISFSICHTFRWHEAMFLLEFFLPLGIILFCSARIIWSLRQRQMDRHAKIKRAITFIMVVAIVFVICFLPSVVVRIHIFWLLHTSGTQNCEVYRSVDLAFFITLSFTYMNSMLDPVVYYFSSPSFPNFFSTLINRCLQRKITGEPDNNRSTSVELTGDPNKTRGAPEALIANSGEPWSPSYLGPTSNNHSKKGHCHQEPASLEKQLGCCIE
T1 sequence (P46093 whole entry): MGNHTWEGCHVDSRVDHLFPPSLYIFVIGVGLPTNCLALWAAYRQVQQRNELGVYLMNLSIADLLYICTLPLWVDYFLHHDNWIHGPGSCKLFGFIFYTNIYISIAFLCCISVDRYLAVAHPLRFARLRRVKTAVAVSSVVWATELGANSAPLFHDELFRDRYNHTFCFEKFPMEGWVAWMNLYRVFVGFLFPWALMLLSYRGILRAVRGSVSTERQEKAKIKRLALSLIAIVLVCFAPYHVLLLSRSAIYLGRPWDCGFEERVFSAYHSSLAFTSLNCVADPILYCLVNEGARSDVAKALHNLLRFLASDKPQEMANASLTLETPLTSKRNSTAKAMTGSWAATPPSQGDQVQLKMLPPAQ
T4 sequence (P29274 whole entry): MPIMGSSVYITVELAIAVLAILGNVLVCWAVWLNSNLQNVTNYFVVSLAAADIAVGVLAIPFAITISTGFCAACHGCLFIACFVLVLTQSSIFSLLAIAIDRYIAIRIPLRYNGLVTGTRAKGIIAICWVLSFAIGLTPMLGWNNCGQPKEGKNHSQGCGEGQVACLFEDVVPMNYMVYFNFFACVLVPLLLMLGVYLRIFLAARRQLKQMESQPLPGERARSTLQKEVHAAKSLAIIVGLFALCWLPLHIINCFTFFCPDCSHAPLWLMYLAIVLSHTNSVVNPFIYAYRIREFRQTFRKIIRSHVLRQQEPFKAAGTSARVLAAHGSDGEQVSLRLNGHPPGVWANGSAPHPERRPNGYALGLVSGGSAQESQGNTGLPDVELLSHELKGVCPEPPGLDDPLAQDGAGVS
T2 sequence (Q8TDS4 whole entry): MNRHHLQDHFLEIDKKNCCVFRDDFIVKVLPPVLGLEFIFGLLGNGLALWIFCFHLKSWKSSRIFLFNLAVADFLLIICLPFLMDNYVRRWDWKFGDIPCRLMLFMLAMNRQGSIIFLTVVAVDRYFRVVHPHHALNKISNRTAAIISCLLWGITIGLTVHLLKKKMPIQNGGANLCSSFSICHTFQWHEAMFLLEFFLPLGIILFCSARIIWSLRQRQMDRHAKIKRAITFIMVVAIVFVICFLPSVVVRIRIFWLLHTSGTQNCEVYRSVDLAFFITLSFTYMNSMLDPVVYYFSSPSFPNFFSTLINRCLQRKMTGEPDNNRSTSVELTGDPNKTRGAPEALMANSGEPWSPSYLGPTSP
T5 sequence (Q99677 whole entry): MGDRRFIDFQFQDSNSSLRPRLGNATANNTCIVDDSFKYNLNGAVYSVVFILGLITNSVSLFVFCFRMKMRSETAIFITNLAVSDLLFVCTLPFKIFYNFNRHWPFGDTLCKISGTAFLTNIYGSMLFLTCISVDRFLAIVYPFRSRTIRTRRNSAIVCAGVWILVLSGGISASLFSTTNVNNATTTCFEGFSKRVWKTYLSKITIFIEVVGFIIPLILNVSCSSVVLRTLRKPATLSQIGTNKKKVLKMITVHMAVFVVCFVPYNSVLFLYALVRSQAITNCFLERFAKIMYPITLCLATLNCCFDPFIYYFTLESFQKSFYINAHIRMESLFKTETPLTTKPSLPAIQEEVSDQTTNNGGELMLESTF
T9 sequence (P34972 whole entry): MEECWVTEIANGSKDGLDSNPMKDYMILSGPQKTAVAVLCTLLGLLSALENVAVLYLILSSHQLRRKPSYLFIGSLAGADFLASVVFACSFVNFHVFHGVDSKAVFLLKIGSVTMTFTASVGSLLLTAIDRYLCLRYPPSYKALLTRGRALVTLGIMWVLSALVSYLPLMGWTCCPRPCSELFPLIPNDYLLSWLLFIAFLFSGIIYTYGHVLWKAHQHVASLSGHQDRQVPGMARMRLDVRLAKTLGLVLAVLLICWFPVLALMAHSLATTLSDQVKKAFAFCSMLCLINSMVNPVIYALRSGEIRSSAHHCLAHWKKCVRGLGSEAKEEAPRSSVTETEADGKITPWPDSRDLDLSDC
T11 sequence (O95136 whole entry): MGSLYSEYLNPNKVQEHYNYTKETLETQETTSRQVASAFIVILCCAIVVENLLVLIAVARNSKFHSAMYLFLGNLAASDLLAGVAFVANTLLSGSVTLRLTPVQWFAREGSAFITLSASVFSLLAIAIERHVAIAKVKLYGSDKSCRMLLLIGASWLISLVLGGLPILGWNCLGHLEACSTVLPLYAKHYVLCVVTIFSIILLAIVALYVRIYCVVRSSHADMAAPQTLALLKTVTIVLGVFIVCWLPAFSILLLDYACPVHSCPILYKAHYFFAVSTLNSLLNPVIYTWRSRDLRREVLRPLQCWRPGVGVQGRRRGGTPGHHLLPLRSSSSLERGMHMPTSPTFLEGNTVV
T12 sequence (P21453 whole entry): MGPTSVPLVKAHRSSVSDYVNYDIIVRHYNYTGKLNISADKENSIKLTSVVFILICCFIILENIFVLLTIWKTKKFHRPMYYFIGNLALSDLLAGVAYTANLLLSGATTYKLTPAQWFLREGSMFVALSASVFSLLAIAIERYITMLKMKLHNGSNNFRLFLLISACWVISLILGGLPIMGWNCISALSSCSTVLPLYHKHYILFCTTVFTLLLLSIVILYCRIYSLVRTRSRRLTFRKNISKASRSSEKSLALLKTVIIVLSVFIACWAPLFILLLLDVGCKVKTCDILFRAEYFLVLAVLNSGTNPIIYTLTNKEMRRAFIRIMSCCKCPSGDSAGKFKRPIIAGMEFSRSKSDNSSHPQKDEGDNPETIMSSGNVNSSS

CCCCCC(O)CC(=O)O (stereo not drawn) [3-hydroxyoctanoic acid]
fold higher EC50 at HCAR3 observed by Colosimo et al. versus this study (HCAR3; 304 μM versus 24 μM): 12.6 fold | EC50 (HCAR3): 24 µM

C[C@]12CC[C@H](O)CC1=CC[C@@H]1[C@@H]2CC[C@]2(C)C(=O)CC[C@@H]12 [DHEA, dehydroepiandrosterone]
activity at GPR4 in words (mode of action) (GPR4): increase receptor signaling and PAMs | activity at HCAR2 in words (mode of action) (HCAR2): increase receptor signaling | activity at LPAR1 in words (mode of action) (LPAR1): increase receptor signaling | activity at ADORA2A in words (mode of action) (ADORA2A): increase receptor signaling | activity at LPAR4 in words (mode of action) (LPAR4): increase receptor signaling | activity at GPR68 in words (mode of action) (GPR68): increase receptor signaling and PAMs | activity at HCAR3 in words (mode of action, potency range) (HCAR3): increase receptor signaling and PAM-agonist and PAMs | activity at GPR35 in words (mode of action, potency range) (GPR35): increase receptor signaling; also recorded: PAM-agonist

O=C(O)c1cc(=O)c2ccccc2[nH]1 [KYNA, kynurenic acid]
activity at ADRA2B in words (mode of action, potency range) (ADRA2B): micromolar interactions; also recorded: negative allosteric modulator | activity at HCAR3 in words (mode of action, potency range) (HCAR3): micromolar interactions; also recorded: orthosteric agonist | fold higher affinity (lower EC50) for HCAR3 compared to GPR35 (HCAR3; head-to-head titrations of GPR35 and HCAR3): 18 fold and 18.6 fold | EC50 (HCAR3): 41 µM | fold lower EC50 at HCAR3 than phenylpropanoic acid (HCAR3; versus literature EC50 of phenylpropanoic acid): 5.1 fold | activity at GPR35 in words (mode of action, potency range) (GPR35): activated | EC50 (GPR35; titration, yeast GPCR-Gα reporter strain): 795 µM

O[C@H]1[C@H](O)[C@@H](O)[C@H](O)[C@@H](O)[C@H]1O [inositol]
activity at CNR2 in words (mode of action) (CNR2): increase receptor signaling | activity at ADORA2A in words (mode of action) (ADORA2A): increase receptor signaling; also recorded: NAM-agonist | activity at GPR68 in words (mode of action) (GPR68): increase receptor signaling and PAM-agonist and PAMs | activity at GPR35 in words (mode of action, potency range) (GPR35): increase receptor signaling; also recorded: PAM-agonist | activity at GPR65 in words (mode of action) (GPR65): increase receptor signaling and PAM-agonist and PAMs

C[C@]12CC[C@@H](O)C[C@@H]1CC[C@@H]1[C@@H]2CC[C@]2(C)C(=O)CC[C@@H]12 [androsterone]
activity at GPR4 in words (mode of action) (GPR4): increase receptor signaling and PAMs | activity at HCAR2 in words (mode of action) (HCAR2): increase receptor signaling | activity at LPAR1 in words (mode of action) (LPAR1): increase receptor signaling | activity at ADORA2A in words (mode of action) (ADORA2A): increase receptor signaling | activity at LPAR4 in words (mode of action) (LPAR4): increase receptor signaling | activity at GPR68 in words (mode of action) (GPR68): increase receptor signaling and PAMs | activity at HCAR3 in words (mode of action, potency range) (HCAR3): increase receptor signaling and PAMs | activity at GPR35 in words (mode of action, potency range) (GPR35): increase receptor signaling

CC(C)CCC[C@@H](C)[C@H]1CC[C@H]2[C@@H]3CC=C4C[C@@H](O)CC[C@]4(C)[C@H]3CC[C@]12C [cholesterol]
response in control dCyFIRscreen profiles [1]: Neither of these ligands elicited responses

CCCCCCCCCCC/C=C\CCCCC(=O)O [petroselinic acid]
activity at S1PR2 in words (mode of action, potency range) (S1PR2): agonist specific for | activity at LPAR1 in words (mode of action) (LPAR1): agonist specific for | activity at S1PR1 in words (mode of action, potency range) (S1PR1): agonist specific for

COc1ccc2[nH]cc(CCNC(C)=O)c2c1 [melatonin]
active cell pool, fraction of cell-sorting events for the 300-plex [2]: 1.0%

C[C@]12CC[C@H](OS(=O)(=O)O)CC1=CC[C@@H]1[C@@H]2CC[C@]2(C)C(=O)CC[C@@H]12 [DHEA-S]
response in control dCyFIRscreen profiles [1]: Neither of these ligands elicited responses
